Measured values taken from PubChem BioAssay (NCI).
“And” between values parts separate entries of the source, which are not always exact repeats. Equal entries are not always repeated.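 48-hour exposure; five concentrations; linearly interpolated endpoints. At the GI50, growth is halved. TGI denotes the concentration required for complete inhibition of growth.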 *1 amine or outer side, *2 acyl side, *3 side chain or, on linkers, in order; H or OH if unused. Where a SMILES comes first, the peptide text is derived from it. Bridges are numbered along the chain shown (N, C = ends). [ ]: non-standard residue; d: D form. ξ: configuration not given here. X4 = CCC(C)C(N[*:1])C(O)CC(=O)O[C@H](C(=O)C(C)C(=O)[*:2])C(C)C; NMeY = CN[C@@H](Cc1ccc(O)cc1)C(=O)O; X9 = O=C([C@@H]1CC(O)CN1[*:1])[*:2]; ξNMeL = CNC(CC(C)C)C(=O)O; ξT = CC(O)C(N)C(=O)O

Key:
Test in all cases: NCI-60 cell line screen, 48 h
OVCAR-5 ovarian = test system: OVCAR-5 ovarian
RXF 393 renal = test system: RXF 393 renal
NCI-H460 lung = test system: NCI-H460 lung
CCRF-CEM leukemia = test system: CCRF-CEM leukemia
UO-31 renal = test system: UO-31 renal
UACC-62 melanoma = test system: UACC-62 melanoma
K-562 leukemia = test system: K-562 leukemia
SNB-19 CNS = test system: SNB-19 CNS

| SMILES | GI50 (OVCAR-5 ovarian) | TGI (OVCAR-5 ovarian) | GI50 (RXF 393 renal) [µM] | TGI (RXF 393 renal) | GI50 (NCI-H460 lung) | TGI (NCI-H460 lung) | GI50 (CCRF-CEM leukemia) | TGI (CCRF-CEM leukemia) | GI50 (UO-31 renal) [µM] | TGI (UO-31 renal) | GI50 (UACC-62 melanoma) | TGI (UACC-62 melanoma) | GI50 (K-562 leukemia) | TGI (K-562 leukemia) | GI50 (SNB-19 CNS) | TGI (SNB-19 CNS) |
| --- | --- | --- | --- | --- | --- | --- | --- | --- | --- | --- | --- | --- | --- | --- | --- | --- |
| Nc1nc(-n2cccn2)nc(-n2cccn2)c1Br | > 100 µM | > 100 µM | > 100 | > 100 µM | > 100 µM | > 100 µM | > 100 µM | > 100 µM | > 100 | > 100 µM | > 100 µM | > 100 µM | > 100 µM | > 100 µM |  |  |
| CCOC(=O)c1sc(=S)c2c(C(=O)c3ccccc3)c(C(=O)c3ccccc3)sc2c1C(=O)OCC |  |  | 4.48 | > 100 µM | 21 µM | > 100 µM | 2.1 µM | 5.99 µM | 5.12 | > 100 µM | 2.99 µM | 17.8 µM | 3.21 µM | > 100 µM | 8.87 µM | > 100 µM |
| CCCCCCn1c(-c2ccc(C(=O)O/N=C(\N)c3ccc(OC)cc3)cc2)nc(-c2ccccc2)c1-c1ccccc1 |  |  | 1.62 | 3.17 µM | 1.85 µM | 3.93 µM | 0.506 µM | 2.85 µM | 0.413 | 1.48 µM |  |  |  |  | 1.85 µM | 4.64 µM |
| Cc1sc2ncnc(Sc3nc4ccccc4[nH]3)c2c1C | 39.7 µM | > 100 µM |  |  | 27.6 µM | > 100 µM | 21.1 µM | > 100 µM | 14.7 | 96.7 µM | 17.3 µM | > 100 µM | 23.4 µM | 97.3 µM | 47 µM | > 100 µM |
| CNC(=O)c1cc(Oc2ccc3nc(NC(=O)Nc4ccc(Cl)c(Cl)c4)sc3c2)ccn1 |  |  | 1.84 | 3.65 µM | 2.43 µM | 5.32 µM | > 100 µM | > 100 µM | 2.08 | 3.96 µM | 2.32 µM | 7.76 µM | > 100 µM | > 100 µM | 1.99 µM | 3.98 µM |
| c1ccc(-c2nc(Nc3ccc(-c4nc5ccccc5[nH]4)cc3)nc(N3CCOCC3)n2)cc1 | 2.16 µM | 4.02 µM | 0.501 | 2.12 µM | 0.822 µM | 2.46 µM | 0.545 µM | 3.12 µM | 1.32 | 2.91 µM | 1.66 µM | 3.48 µM | 0.295 µM | 0.959 µM |  |  |
| CCCCCCC(C)CC(CCCCCC)NCCOC(=O)c1ccc([N+](=O)[O-])cc1 (stereo not given) |  | > 100 µM and 50 µM |  |  | 13.7 µM and 5.28 µM | 29.4 µM and 18.4 µM |  | 12.6 µM and 18.3 µM |  | 23.8 µM and 22.2 µM |  | 28.7 µM and 26.6 µM |  | 1.84 µM |  | 32.2 µM and 32.5 µM |
| C[C@]12CC[C@H]3[C@@H](CC=C4C[C@@H](O)CC[C@@]43C)[C@@H]1C/C(=C\c1cccc(OCCN3CCOCC3)c1)[C@@H]2O | > 100 µM | > 100 µM |  |  | > 100 µM | > 100 µM | 41.1 µM | > 100 µM | 33.5 | > 100 µM | > 100 µM | > 100 µM | 11.6 µM | 40.8 µM | > 100 µM | > 100 µM |
| CCC(C)C1NC(=O)C(NC(=O)C(CC(C)C)N(C)C(=O)[C@@H]2CC(O)CN2)C(C)OC(=O)[C@H](Cc2ccc(OC)cc2)N(C)C(=O)[C@@H]2CCCN2C(=O)[C@H](CC(C)C)NC(=O)C(C)C(=O)[C@H](C(C)C)OC(=O)CC1O (stereo not given in full) (H-[X9][ξNMeL][ξT][X4]LP[NMeY](Me); ester 3-C) | 0.365 µM | 0.559 µM and 1.49 µM |  | 0.0965 µM and 0.0648 µM |  | 0.134 µM and 1.1 µM |  |  | 0.711 | 0.954 µM and 7.18 µM |  | 0.0231 µM and 0.0117 µM |  | 0.114 µM and 0.131 µM |  | 0.45 µM and 0.148 µM |
| Cc1cccc(C(C)O)n1 (stereo not given) |  | > 100 µM |  |  |  | > 100 µM |  | > 100 µM |  | > 100 µM |  | > 100 µM |  | > 100 µM |  | > 100 µM |
| CCOC(=O)c1cc2c(cc1Cl)SC(N(c1ccc(F)cc1)S(=O)(=O)c1ccc(OC)cc1)=NS2(=O)=O | 32.4 µM | 71 µM |  |  | 17 µM | 36.2 µM | 1.31 µM | 54.2 µM | 17.9 | 42.2 µM | 14.6 µM | 30.5 µM | 14.2 µM | 31.1 µM | 18.6 µM | 51.2 µM |
| OCCN(CO)CN(CN(CO)CCO)c1nc(N(CN(CO)CCO)CN(CO)CCO)nc(N(CN(CO)CCO)CN(CO)CCO)n1 | 2.02 ng/mL | 76.8 ng/mL |  |  | 1.17 ng/mL | 2.53 ng/mL | 0.55 ng/mL | 2.52 ng/mL |  |  | 1.26 ng/mL | 3.02 ng/mL | 0.559 ng/mL | 10.6 ng/mL | 2.32 ng/mL | 744 ng/mL |
| CC1CCC2(OC1)OC1CC3C4CC=C5CC(OC6OC(CO)C(OC7OC(C)C(OC8OC(C)C(O)C(O)C8O)C(O)C7O)C(O)C6OC6OC(C)C(O)C(O)C6O)CCC5(C)C4CCC3(C)C1C2C (stereo not given) |  | 2.39 µM |  | 2.05 µM |  | 3.25 µM |  |  |  | 1.67 µM |  | 1.51 µM |  |  |  | 2.4 µM |
